Measurements as given in patent US10131652B2, “Pyrimidinyloxy benzene derivatives as herbicides” (E. I. DU PONT DE NEMOURS AND COMPANY, priority 2014, dated 2018).
Read-outs that look alike come from different tables or passages of the source.

What was measured:
Assay type in all cases: in vivo
[1] = system: field bindweed (Convolvulus arvensis); assay: Test F pre-/postemergence plant response; conditions: Convolvulus arvensis, scale 0 to 100, read-out: Plant response rating, Field Bindweed
Outline: (§1)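 Herbicidal effect judged by eye against controls, scored 0–100 (complete control = 100). Applications: pre-emergence onto seeded silt loam, post-emergence onto 2–18 cm seedlings; greenhouse, 14–21 days.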

[2] = system: ragweed (common ragweed, Ambrosia elatior); assay: Test F pre-/postemergence plant response; conditions: Ambrosia artemisiifolia, scale 0 to 100, read-out: Plant response rating, Ragweed
Outline: as §1

[3] = system: dayflower (Virginia (VA) dayflower, Commelina virginica); assay: Test F pre-/postemergence plant response; conditions: Commelina virginica, scale 0 to 100, read-out: Plant response rating, Dayflower, VA
Outline: as §1

[4] = system: morningglory (Ipomoea coccinea); assay: Test F pre-/postemergence plant response; conditions: Ipomoea, pre-emergence, scale 0 to 100, read-out: Plant response rating, Morningglory
Outline: as §1

[5] = system: waterhemp (common waterhemp, Amaranthus rudis); assay: Test F pre-/postemergence plant response; conditions: Amaranthus tuberculatus, scale 0 to 100, read-out: Plant response rating, Waterhemp
Outline: as §1

[6] = system: giant foxtail (Setaria faberii); assay: Test F pre-/postemergence plant response; conditions: Setaria faberi, pre-emergence, scale 0 to 100, read-out: Plant response rating, Foxtail, Giant
Outline: as §1

[7] = system: hairy beggarticks (Bidens pilosa); assay: Test F pre-/postemergence plant response; conditions: Bidens pilosa, scale 0 to 100, read-out: Plant response rating, Beggarticks
Outline: as §1

[8] = system: yellow nutsedge (Cyperus esculentus); assay: Test F pre-/postemergence plant response; conditions: Cyperus, pre-emergence, scale 0 to 100, read-out: Plant response rating, Nutsedge, Yellow
Outline: as §1

[9] = system: barnyardgrass (Echinochloa crus-galli); assay: Test F pre-/postemergence plant response; conditions: Echinochloa crus-galli, scale 0 to 100, read-out: Plant response rating, Barnyardgrass
Outline: as §1

[10] = system: velvetleaf (Abutilon theophrasti); assay: Test F pre-/postemergence plant response; conditions: Abutilon theophrasti, pre-emergence, scale 0 to 100, read-out: Plant response rating, Velvetleaf
Outline: as §1

[11] = system: johnsongrass (Sorghum halepense); assay: Test F pre-/postemergence plant response; conditions: Sorghum halepense, pre-emergence, scale 0 to 100, read-out: Plant response rating, Johnsongrass
Outline: as §1

[12] = system: small-flower umbrella sedge (Cyperus difformis); assay: Test D flooded paddy test plant response; conditions: Flood (flooded paddy test), visual rating on scale 0 to 100 (0 no effect, 100 complete control), 13 to 15 days
Outline: (§2)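 Plants at 2-leaf stage in pots flooded 3 cm above soil; compounds applied directly into paddy water, depth kept throughout. After 13-15 days in greenhouse, visual rating against controls on 0-100 scale (100 = complete control).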

[13] = system: ducksalad (Heteranthera limosa); assay: Test D flooded paddy test plant response; conditions: Flood (flooded paddy test), visual rating on scale 0 to 100 (0 no effect, 100 complete control), 13 to 15 days
Outline: as §2

[14] = system: barnyardgrass (Echinochloa crus-galli); assay: Test D flooded paddy test plant response; conditions: Flood (flooded paddy test), visual rating on scale 0 to 100 (0 no effect, 100 complete control), 13 to 15 days
Outline: as §2

rice (Oryza sativa) = assay: Test D flooded paddy test plant response; conditions: Flood (flooded paddy test), visual rating on scale 0 to 100 (0 no effect, 100 complete control), 13 to 15 days
Outline: as §2

[15] = post-emergence, 16 g ai/ha Postemergence
[16] = post-emergence, 31 g ai/ha Postemergence
[17] = post-emergence, 62 g ai/ha Postemergence
[18] = post-emergence, 125 g ai/ha Postemergence
[19] = pre-emergence, 16 g ai/ha Preemergence
[20] = pre-emergence, 31 g ai/ha Preemergence
[21] = pre-emergence, 62 g ai/ha Preemergence
[22] = pre-emergence, 125 g ai/ha Preemergence

## Fc1cccc(Oc2ncc(Cl)cn2)c1-c1cc(C(F)F)no1 [Compound 144, 5-chloro-2-[2-[3-(difluoromethyl)-5-isoxazolyl]-3-fluorophenoxy]pyrimidine]
[1]; [15]
  pest or weed control at 16 g/ha: 70%
[1]; [16]
  pest or weed control at 31 g/ha: 75%
[1]; [17]
  pest or weed control at 62 g/ha: 80%
[1]; [18]
  pest or weed control at 125 g/ha: 90%
[1]; [19]
  pest or weed control at 16 g/ha: 40%
[1]; [20]
  pest or weed control at 31 g/ha: 60%
[1]; [21]
  pest or weed control at 62 g/ha: 65%
[1]; [22]
  pest or weed control at 125 g/ha: 70%
[2]; [15]
  pest or weed control at 16 g/ha: 50%
[2]; [16]
  pest or weed control at 31 g/ha: 50%
[2]; [17]
  pest or weed control at 62 g/ha: 85%
[2]; [18]
  pest or weed control at 125 g/ha: 90%
[2]; [19]
  pest or weed control at 16 g/ha: 0%
[2]; [20]
  pest or weed control at 31 g/ha: 0%
[2]; [22]
  pest or weed control at 125 g/ha: 85%
[2]; pre-emergence, Preemergence
  pest or weed control at 62 g/ha: 95%
[3]; [15]
  pest or weed control at 16 g/ha: 50%
[3]; [16]
  pest or weed control at 31 g/ha: 50%
[3]; [17]
  pest or weed control at 62 g/ha: 60%
[3]; [18]
  pest or weed control at 125 g/ha: 85%
[3]; [19]
  pest or weed control at 16 g/ha: 0%
[3]; [20]
  pest or weed control at 31 g/ha: 30%
[3]; [21]
  pest or weed control at 62 g/ha: 85%
[3]; [22]
  pest or weed control at 125 g/ha: 95%
[4]; 16 g ai/ha Preemergence
  pest or weed control at 16 g/ha: 0%
[4]; 31 g ai/ha Preemergence
  pest or weed control at 31 g/ha: 0%
[4]; 125 g ai/ha Preemergence
  pest or weed control at 125 g/ha: 95%
[4]; Preemergence
  pest or weed control at 62 g/ha: 65%
[5]; [15]
  pest or weed control at 16 g/ha: 100%
[5]; [16]
  pest or weed control at 31 g/ha: 100%
[5]; [17]
  pest or weed control at 62 g/ha: 100%
[5]; [18]
  pest or weed control at 125 g/ha: 100%
[5]; [19]
  pest or weed control at 16 g/ha: 98%
[5]; [20]
  pest or weed control at 31 g/ha: 100%
[5]; [22]
  pest or weed control at 125 g/ha: 100%
[5]; pre-emergence, Preemergence
  pest or weed control at 62 g/ha: 100%
[6]; 16 g ai/ha Preemergence
  pest or weed control at 16 g/ha: 15%
[6]; 31 g ai/ha Preemergence
  pest or weed control at 31 g/ha: 90%
[6]; 62 g ai/ha Preemergence
  pest or weed control at 62 g/ha: 95%
[6]; 125 g ai/ha Preemergence
  pest or weed control at 125 g/ha: 100%
[7]; [15]
  pest or weed control at 16 g/ha: 70%
[7]; [16]
  pest or weed control at 31 g/ha: 60%
[7]; [17]
  pest or weed control at 62 g/ha: 70%
[7]; [18]
  pest or weed control at 125 g/ha: 75%
[7]; [19]
  pest or weed control at 16 g/ha: 0%
[7]; [20]
  pest or weed control at 31 g/ha: 0%
[7]; [21]
  pest or weed control at 62 g/ha: 0%
[7]; [22]
  pest or weed control at 125 g/ha: 0%
[8]; 16 g ai/ha Preemergence
  pest or weed control at 16 g/ha: 0%
[8]; 31 g ai/ha Preemergence
  pest or weed control at 31 g/ha: 0%
[8]; 125 g ai/ha Preemergence
  pest or weed control at 125 g/ha: 0%
[8]; Preemergence
  pest or weed control at 62 g/ha: 0%
[9]; [15]
  pest or weed control at 16 g/ha: 10%
[9]; [16]
  pest or weed control at 31 g/ha: 30%
[9]; [17]
  pest or weed control at 62 g/ha: 50%
[9]; [18]
  pest or weed control at 125 g/ha: 75%
[9]; [19]
  pest or weed control at 16 g/ha: 0%
[9]; [20]
  pest or weed control at 31 g/ha: 20%
[9]; [21]
  pest or weed control at 62 g/ha: 70%
[9]; [22]
  pest or weed control at 125 g/ha: 100%
[10]; 16 g ai/ha Preemergence
  pest or weed control at 16 g/ha: 80%
[10]; 31 g ai/ha Preemergence
  pest or weed control at 31 g/ha: 100%
[10]; 125 g ai/ha Preemergence
  pest or weed control at 125 g/ha: 100%
[10]; Preemergence
  pest or weed control at 62 g/ha: 100%
[11]; 16 g ai/ha Preemergence
  pest or weed control at 16 g/ha: 0%
[11]; 31 g ai/ha Preemergence
  pest or weed control at 31 g/ha: 0%
[11]; 125 g ai/ha Preemergence
  pest or weed control at 125 g/ha: 70%
[11]; Preemergence
  pest or weed control at 62 g/ha: 30%
[12]; 31 g ai/ha
  Plant response rating, Sedge, Umbrella: 65
[12]; 62 g ai/ha
  Plant response rating, Sedge, Umbrella: 80
[12]; 125 g ai/ha
  Plant response rating, Sedge, Umbrella: 95
[12]; 250 g ai/ha
  Plant response rating, Sedge, Umbrella: 95
[13]; 31 g ai/ha
  Plant response rating, Ducksalad: 75
[13]; 62 g ai/ha
  Plant response rating, Ducksalad: 85
[13]; 125 g ai/ha
  Plant response rating, Ducksalad: 90
[13]; 250 g ai/ha
  Plant response rating, Ducksalad: 100
[14]; 31 g ai/ha
  Plant response rating, Barnyardgrass: 0
[14]; 62 g ai/ha
  Plant response rating, Barnyardgrass: 0
[14]; 125 g ai/ha
  Plant response rating, Barnyardgrass: 15
[14]; 250 g ai/ha
  Plant response rating, Barnyardgrass: 35
Rice (Oryza sativa); 31 g ai/ha
  Plant response rating, Rice: 0
Rice (Oryza sativa); 62 g ai/ha
  Plant response rating, Rice: 15
Rice (Oryza sativa); 125 g ai/ha
  Plant response rating, Rice: 25
Rice (Oryza sativa); 250 g ai/ha
  Plant response rating, Rice: 40
